Active and inactive are the calls of the source. The rule behind the calls is not given here.
Assays:
Mus musculus [1] = assay: Compound was tested for in vivo antimalarial activity against Plasmodium berghei in male mice (Mus musculus) at dose of 30 mg/kg (ip); A - Active; format: functional, organism-based; set-up: dose 30 mg/kg
Mus musculus [2] = assay: Compound was tested for in vivo antimalarial activity against Plasmodium berghei in male mice (Mus musculus) at dose of 90 mg/kg (intraperitoneal); A - Active; format: functional, organism-based; set-up: dose 90 mg/kg

| SMILES | Activity (Mus musculus [1]) | Activity (Mus musculus [2]) |
| --- | --- | --- |
| C=C(c1ccc(OC)cc1)C1COC2(OO1)C1CC3CC(C1)CC2C3 (stereo not drawn) | Active | Active |
| C=C(c1ccc(F)cc1)C1COC2(OO1)C1CC3CC(C1)CC2C3 (stereo not drawn) | – | Active |
| C=C(c1ccccc1)C1COC2(OO1)C1CC3CC(C1)CC2C3 (stereo not drawn) | – | Active |
| C=C(c1ccc(C)cc1)C1COC2(OO1)C1CC3CC(C1)CC2C3 (stereo not drawn) | – | Active |
| C=C(c1ccc(Cl)cc1)C1COC2(OO1)C1CC3CC(C1)CC2C3 (stereo not drawn) | Active | Active |
| C=C(c1ccc(C)cc1C)C1COC2(OO1)C1CC3CC(C1)CC2C3 (stereo not drawn) | – | Active |

— ChEMBL document CHEMBL1151598, “Synthesis of in vivo potent antimalarial 1,2,4-trioxanes” (Bioorg Med Chem Lett, 1992)
